{"source": "patent US20130275051A1", "about": "“COMPUTING DEVICE AND METHOD FOR DETECTING CELL DEATH IN A BIOLOGICAL SAMPLE” (priority 2011, published 2013)", "system": "human bladder carcinoma (HT-1376) tumors", "experiment": "OCT decorrelation time in tumors grown in dorsal skin-fold window chamber model", "type": "in vivo", "conditions": "mice, single tail vein injection 100 mg/m2, 0, 24 and 48 hours, FIG. 11; cell death confirmed by histological data", "text": "An in-vivo tumor model used in the successful experiment consisted of human bladder carcinoma (HT-1376) tumors grown within a dorsal skin-fold window chamber model in a plurality of mice. […] A custom built 36 kHz swept source OCT system (similar to system 100) was used for in-vivo acquisition of data. For each imaging time point, two-dimensional frames of OCT data were acquired at 200 frames per second over approximately 8 seconds. Each frame contained 180 axial scans and covered a lateral distance of 3 mm. Data sets were acquired from imaging planes within the window chamber of each mouse. Method 200 was applied to each pixel location of an ROI within tumors at 0 hours, 24 hours and 48 hours to obtain an average decorrelation time at each of 0 hours, 24 hours and 48 hours."}
{"smiles": "N.N.[Cl][Pt][Cl]", "note": "[cisplatin]", "values": [{"measurement": "average decorrelation time within tumor ROI", "value": "increase in average decorrelation time"}]}
